In patent US20240139376A1, “RECONSTITUTION OF EXTRACELLULAR MATRIXES FOR MUSCULOSKELETAL JOINT TISSUE REPAIR USING BIOMIMETIC BIOLOGIC AND SYNTHETIC FACTORS” (Rhode Island Hospital, priority 2021, published 2024):

Tests used:
Human CPCs [1] = assay: ELISA for MMP13 protein in cell culture supernatant, CPCs; format: cell-based; details: all treatment groups
Experimental: (§1) CPCs and BM-MSCs were cultured again at 22,000 cell/swell for 10 days in 12-well plates and again treated with KGN. At 5 and 10 days of treatment, cell culture supernatant was collected, with cell media and KGN replenished at the 5-day timepoint (N=3). Supernatants were used to perform ELISA for measuring MMP13 protein. At day 10, cell culture plates were stained for Alcian Blue (N=4). The color was extracted and the absorbances were quantified via spectrophotometry, to assess acidic glycosaminoglycans (GAG) and hyaluronan (HA). In analysis, within and between group differences were assessed through 2-way ANOVA with Dunnett's multiple comparisons test. Significant differences are signified by p-values ≤0.05.
(§2) Human CPCs and BM-MSCs were cultured at 40,000 cells/well for 3 days or 22,000 cells/well for 10 days on 12-well plates. Cells were either untreated or treated with 500 nM, 1 uM, 10 uM, or 100 uM KGN (Sigma-Aldrich) at N=5 for each treatment group. […] The color was extracted and the absorbances were quantified via spectrophotometry, to assess acidic glycosaminoglycans (GAG) and hyaluronan (HA). In analysis, within and between group differences were assessed through 2-way ANOVA with Dunnett's multiple comparisons test. […]

BM-MSCs [2] = assay: Alcian Blue staining (GAG and HA), BM-MSCs; format: cell-based, Human; details: 10 days
Experimental: as §1, §2

[3] = tested on: bone marrow derived mesenchymal stem cells (BM-MSCs); assay: RT-qPCR of chondrogenic and hypertrophy markers after KGN treatment, BM-MSCs; format: cell-based, Human
Experimental: (§3) 1 μM KGN enhances chondrogenesis of CPCs but not MSCs. The following materials and methods were used to generate the data described herein. Human CPCs and bone marrow derived mesenchymal stem cells (BM-MSCs) were cultured at 40,000 cells/well for 3 days or 22,000 cells/well for 10 days on 12-well plates. Cells were either untreated or treated with 500 nM, 1 μM, 10 μM, or 100 μM KGN (Sigma-Aldrich) at N=5 for each treatment group. At experimental endpoint following KGN treatment, RT-qPCR was used the measure expression of chondrogenic markers SRY-Box Transcription Factor 9 (SOX9), collagen 2 (COL2), collagen 1 (COL1) (FIG. 3A) as well as hypertrophy and catabolism markers, associated with development of osteoarthritis, collagen 10 (COL10), matrix metallopeptidase 13 (MMP13), Runt-related transcription factor 2 (RUNX2) (FIG. 3B).
as §1, with “Human CPCs and BM-MSCs were cultured at 40,000 cells/well for 3 days or 22,000 cells/well for 10 days on 12-well plates. Cells were either untreated or treated with 500 nM, 1 uM, 10 uM, or 100 uM KGN (Sigma-Aldrich) at N=5 for each treatment group. At experimental endpoint following KGN treatment, RT-qPCR was used the measure expression of chondrogenic markers SOX9, COL2, COL1 as well as hypertrophy and catabolism markers COL10, MMP13, RUNX2. CPCs” for “CPCs”, “p-values≤0.05.” for “p-values ≤0.05.”

Human CPCs [4] = assay: Alcian Blue staining (GAG and HA), CPCs; format: cell-based; details: 1 μM KGN, 10 days, p<0.05
Experimental: as §1, §2

Human CPCs [5] = assay: RT-qPCR of chondrogenic and hypertrophy markers after KGN treatment, CPCs; format: cell-based
Experimental: as §3
as §1, with “Human CPCs and BM-MSCs were cultured at 40,000 cells/well for 3 days or 22,000 cells/well for 10 days on 12-well plates. Cells were either untreated or treated with 500 nM, 1 uM, 10 uM, or 100 uM KGN (Sigma-Aldrich) at N=5 for each treatment group. At experimental endpoint following KGN treatment, RT-qPCR was used the measure expression of chondrogenic markers SOX9, COL2, COL1 as well as hypertrophy and catabolism markers COL10, MMP13, RUNX2. CPCs” for “CPCs”, “p-values≤0.05.” for “p-values ≤0.05.”

BM-MSCs [6] = assay: ELISA for MMP13 protein in cell culture supernatant, BM-MSCs; format: cell-based, Human
Experimental: as §1
as §1, with “Human CPCs and BM-MSCs were cultured at 40,000 cells/well for 3 days or 22,000 cells/well for 10 days on 12-well plates. Cells were either untreated or treated with 500 nM, 1 uM, 10 uM, or 100 uM KGN (Sigma-Aldrich) at N=5 for each treatment group. At experimental endpoint following KGN treatment, RT-qPCR was used the measure expression of chondrogenic markers SOX9, COL2, COL1 as well as hypertrophy and catabolism markers COL10, MMP13, RUNX2. CPCs” for “CPCs”, “p-values≤0.05.” for “p-values ≤0.05.”

## O=C(O)c1ccccc1C(=O)Nc1ccc(-c2ccccc2)cc1 [KGN, kartogenin]
Human CPCs [1]; 0-5 days KGN treatment
  MMP13 protein in supernatant: undetectable
Human CPCs [1]; 6-10 days KGN treatment
  MMP13 protein in supernatant: undetectable
BM-MSCs [2]; 10 μM KGN, p<0.05
  Alcian Blue staining intensity vs untreated: stained more intensely
BM-MSCs [2]; 100 μM KGN, p<0.0001
  Alcian Blue staining intensity vs untreated: stained more intensely
[3]; 100 μM KGN, 10 days, p<0.05
  expression of COL10: significantly reduced
  expression of MMP13: significantly reduced
[3]; KGN
  expression of COL1: did not increase
  expression of COL2: did not increase
  expression of SOX9: did not increase
Human CPCs [4]
  Alcian Blue staining intensity vs untreated: increased intensity
Human CPCs [5]; 1 μM KGN, 3 days
  expression of MMP13: increased
  expression of RUNX2: increased
Human CPCs [5]; 10 μM KGN, 3 days
  expression of RUNX2: increased
Human CPCs [5]; 100 μM KGN, 3 days
  expression of RUNX2: increased
Human CPCs [5]; CPCs, 1 μM KGN, 3 days, p<0.0001
  upregulation of COL2 mRNA: 2 fold
Human CPCs [5]; CPCs, 1 μM KGN, 3 days, p<0.05
  upregulation of SOX9 mRNA: 2 fold
Human CPCs [5]; CPCs, 1 μM KGN, 10 days, p<0.05
  upregulation of COL2 mRNA: maintained
BM-MSCs [6]; 10 μM KGN, 0-5 days, p<0.001
  protein levels of MMP13: significant decrease
BM-MSCs [6]; 10 μM KGN, 5-10 days, p<0.05
  protein levels of MMP13: significant decrease
BM-MSCs [6]; 100 μM KGN, 0-5 days, p<0.0001
  protein levels of MMP13: significant decrease
BM-MSCs [6]; 100 μM KGN, 5-10 days, p<0.0001
  protein levels of MMP13: significant decrease
